Source: patent publication US10111437B2, “Substituted guanidines as fungicides” (Nippon Soda Co., Ltd., priority 2015, dated 2018)

Legend:
[1] = test system: Apple scab fungus (Venturia inaequalis); test: Apple scab control test (foliar spray on apple seedlings); format: in vivo; details: 125 ppm active ingredient, sprayed on apple seedlings (variety Orin) before inoculation, vs untreated
Method: The dilution was sprayed to apple seedlings (variety “Orin”, 3 to 4 leaf stage) grown in clay pots. […] The control value was calculated by the following equation. [formula]

[2] = test system: wheat leaf rust fungus (Puccinia recondita); test: Wheat leaf rust control test (foliar spray on wheat seedlings); format: in vivo; details: 240 h, 125 ppm active ingredient, sprayed on wheat seedlings (variety Norin 61) before inoculation, 10 days, vs untreated
[3] = test system: cucumber gray mold fungus (Botrytis cinerea); test: Cucumber gray mold control test (foliar spray on cucumber seedlings); details: in Cucumis sativus, 96 h, read-out: control value
[4] = test system: Tomato late blight fungus (Phytophthora infestans); test: whole plant or invertebrate; format: in vivo; details: foliar, 96 h, read-out: control value

Measured: pest or weed control at 125 ppm

N=C(N)NCCCCCCCn1ccn(CCCCOc2ccc(C(=N)N)cc2)c1=N [compound 52, 4-[4-[3-(7-guanidinoheptyl)-2-imino-imidazol-1-yl]butoxy]benzamidine]
≥ 75%: all assays above

CN=C(NCCCOc1ccc(C(=N)N)cc1)NCCCOc1ccc(C(=N)N)cc1 [compound 57, 4-[3-[[N-[3-(4-carbamimidoylphenoxy)propyl]-N′-methyl-carbamimidoyl]amino]propoxy]benzamidine]
≥ 75%: all assays above

N=C(N)NCCCCCCCCNC(=N)NCCCCOc1ccc(C(=N)N)cn1 [compound 61, 6-[4-[[N-(8-guanidinooctyl)carbamimidoyl]amino]butoxy]pyridine-3-carboxamidine]
≥ 75%: all assays above

N=C(N)c1ccc(OCCCn2ccn(CCCOc3ccc(C(=N)N)c(F)c3)c2=N)cc1F [compound 103]
≥ 75%: all assays above

Cc1cn(CCCCOc2ccc(C(=N)N)cc2)c(=N)n1CCCCOc1ccc(C(=N)N)cc1 [compound 107]
≥ 75%: all assays above

Cc1c(C)n(CCCOc2ccc(C(=N)N)cc2)c(=N)n1CCCOc1ccc(C(=N)N)cc1 [compound 109]
≥ 75%: all assays above

N=C(N)NCCCCCCCCNC(=N)NCCCOc1ccc(C(=N)N)cc1Cl [compound 112]
≥ 75%: all assays above

Cc1cn(CCCOc2ccc(C(=N)N)cc2)c(=N)n1CCCOc1ccc(C(=N)N)cc1 [compound 114]
≥ 75%: all assays above

N=C(N)NCCCCCCCCNC(=N)NCCCOc1ccc(C(=N)N)cn1 [compound 120]
≥ 75%: all assays above

CNC(=N)c1ccc(OCCCn2ccn(CCCOc3ccc(C(=N)N)cc3)c2=N)cc1 [compound 122]
≥ 75%: all assays above

CNC(=N)c1ccc(OCCCCn2ccn(CCCOc3ccc(C(=N)N)cc3)c2=N)cc1 [compound 124]
≥ 75%: all assays above

N=C(N)c1ccc(OCCCn2ccn(CCCc3cc4cc(C(=N)N)ccc4o3)c2=N)cc1 [compound 126]
≥ 75%: all assays above

CN(CCCOc1ccc(C(=N)N)cc1)C(=N)NCCCCCCCCNC(=N)N [compound 128]
≥ 75%: all assays above

CN(C)/C(=N\CCCOc1ccc(C(=N)N)cc1)NCCCOc1ccc(C(=N)N)cc1 [compound 130]
≥ 75%: all assays above

N=C(N)NCCCCCCNC(=N)NCCCCOc1ccc(C(=N)N)cc1 [compound 136]
≥ 75%: all assays above

CN(CCCCCCCCNC(=N)N)C(=N)NCCCOc1ccc(C(=N)N)cc1 [compound 140]
≥ 75%: all assays above

N=C(NCCCOCc1ccc(C(=N)N)cc1)NCCCOc1ccc(C(=N)N)cc1 [compound 142]
≥ 75%: all assays above

N=C(N)NCCCCCCCCNC(=N)NCCCOCc1ccc(C(=N)N)cc1 [compound 145]
≥ 75%: all assays above

N=C(NCC/C=C/c1ccc(C(=N)N)cc1)NCC/C=C/c1ccc(C(=N)N)cc1 [compound 151]
≥ 75%: all assays above

N=C(N)NCCCCCCCCNC(=N)NCCC#Cc1ccc(C(=N)N)cc1 [compound 153]
≥ 75%: all assays above

N=C(N)NCCCCCCCCNC(=N)NCCC=Cc1ccc(C(=N)N)cc1 [compound 157]
≥ 75%: all assays above

N=C(N)NCCCCCCCNC(=N)NCCC=Cc1ccc(C(=N)N)cc1 [compound 163]
≥ 75%: all assays above

N=C(N)NCCCCCCCCNC(=N)NCC#Cc1ccc(C(=N)N)cc1 [compound 165]
≥ 75%: all assays above

N=C(N)NCCCCCCCCNC(=N)NC/C=C/c1ccc(C(=N)N)cc1 [compound 167]
≥ 75%: all assays above

N=C(N)NCCCCCCCCNC(=N)NCCCc1ccc(C(=N)N)cc1 [compound 169]
≥ 75%: all assays above

N=C(N)NCCCCCCCCNC(=N)NCCCCCOc1ccc(C(=N)N)cc1 [compound 171]
≥ 75%: all assays above

N=C(N)c1ccc(OCCCn2ccn(CCCSc3ccc(C(=N)N)cc3)c2=N)cc1 [compound 173]
≥ 75%: all assays above

N=C(N)NCCCCCCCNC(=N)NCCCSc1ccc(C(=N)N)cc1 [compound 177]
≥ 75%: all assays above

N=C(N)NCCCCCCCNC(=N)NCCCOCc1ccc(C(=N)N)cc1 [compound 179]
≥ 75%: all assays above
